Measurements published in ChEMBL document CHEMBL4321798, “Old but Gold: Tracking the New Guise of Histone Deacetylase 6 (HDAC6) Enzyme as a Biomarker and Therapeutic Target in Rare Diseases” (J Med Chem, 2020).

Legend:
[1] = target: T1, Protein deacetylase HDAC6 (Homo sapiens, UniProt Q9UBN7); experiment: Inhibition of HADC6 (unknown origin)
T1 sequence (Q9UBN7 whole entry): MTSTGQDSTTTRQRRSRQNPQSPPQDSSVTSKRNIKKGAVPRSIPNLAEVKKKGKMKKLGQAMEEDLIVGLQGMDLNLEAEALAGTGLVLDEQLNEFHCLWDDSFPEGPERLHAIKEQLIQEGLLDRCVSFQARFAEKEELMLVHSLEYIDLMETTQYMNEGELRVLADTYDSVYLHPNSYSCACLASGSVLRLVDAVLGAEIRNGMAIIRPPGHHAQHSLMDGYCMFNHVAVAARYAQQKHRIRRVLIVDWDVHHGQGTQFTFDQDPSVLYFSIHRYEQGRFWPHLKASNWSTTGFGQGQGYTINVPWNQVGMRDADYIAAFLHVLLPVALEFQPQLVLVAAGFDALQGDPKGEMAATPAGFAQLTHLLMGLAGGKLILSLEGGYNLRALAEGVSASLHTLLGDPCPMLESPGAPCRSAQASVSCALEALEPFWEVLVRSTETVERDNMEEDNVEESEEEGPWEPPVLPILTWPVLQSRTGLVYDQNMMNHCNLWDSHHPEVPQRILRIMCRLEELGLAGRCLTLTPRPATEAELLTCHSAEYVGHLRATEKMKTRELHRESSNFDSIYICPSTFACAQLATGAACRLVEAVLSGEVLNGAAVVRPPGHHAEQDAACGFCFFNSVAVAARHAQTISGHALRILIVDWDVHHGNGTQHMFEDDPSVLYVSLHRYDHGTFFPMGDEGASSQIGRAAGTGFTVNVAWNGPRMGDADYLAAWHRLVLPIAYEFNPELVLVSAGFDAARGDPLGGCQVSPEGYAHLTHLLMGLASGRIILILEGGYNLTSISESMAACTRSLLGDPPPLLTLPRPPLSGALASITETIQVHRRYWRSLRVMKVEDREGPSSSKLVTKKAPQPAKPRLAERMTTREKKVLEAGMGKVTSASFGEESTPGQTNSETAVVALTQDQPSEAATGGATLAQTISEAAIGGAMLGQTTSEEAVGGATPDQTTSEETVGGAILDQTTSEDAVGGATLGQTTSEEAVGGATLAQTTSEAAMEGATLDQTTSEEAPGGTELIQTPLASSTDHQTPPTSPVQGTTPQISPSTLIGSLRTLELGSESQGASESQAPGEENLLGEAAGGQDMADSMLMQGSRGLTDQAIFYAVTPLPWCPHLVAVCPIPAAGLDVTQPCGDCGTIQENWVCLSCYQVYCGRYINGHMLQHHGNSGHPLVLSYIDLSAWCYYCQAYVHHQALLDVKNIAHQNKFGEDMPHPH

Histone deacetylase 1 = Histone deacetylase 1 (Homo sapiens, UniProt Q13547); experiment: Inhibition of HADC1 (unknown origin)
Sequence of Histone deacetylase 1 (Q13547 whole entry): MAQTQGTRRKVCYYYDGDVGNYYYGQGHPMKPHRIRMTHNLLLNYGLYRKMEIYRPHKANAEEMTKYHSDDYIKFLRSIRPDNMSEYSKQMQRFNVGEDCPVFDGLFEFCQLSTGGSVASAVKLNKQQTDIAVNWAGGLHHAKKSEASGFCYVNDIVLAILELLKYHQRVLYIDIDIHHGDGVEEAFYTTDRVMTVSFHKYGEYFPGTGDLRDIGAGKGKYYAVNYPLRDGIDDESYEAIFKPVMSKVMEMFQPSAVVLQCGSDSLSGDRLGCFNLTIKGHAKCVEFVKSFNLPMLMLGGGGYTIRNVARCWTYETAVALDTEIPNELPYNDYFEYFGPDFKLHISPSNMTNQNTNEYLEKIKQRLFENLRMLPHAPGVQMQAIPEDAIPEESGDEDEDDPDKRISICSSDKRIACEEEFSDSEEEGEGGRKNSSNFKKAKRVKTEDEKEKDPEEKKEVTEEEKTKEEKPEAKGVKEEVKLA

[2] = Inhibition of maize HD1-A; set-up: species or system Zea mays
[3] = Inhibition of maize HD2; set-up: species or system Zea mays

| IC50 [1] | IC50 (Histone deacetylase 1) | IC50 [2] | SMILES | IC50 [3] |
| --- | --- | --- | --- | --- |
| 1600 nM | 0.0033 µM | – | CC(C)[C@H]1NC(=O)[C@H]2CSSCC/C=C/[C@H](CC(=O)N[C@H](C)C(=O)N2)OC(=O)C[C@@H]1O [OBP-801] | – |
| – | – | 100 nM | Cn1cc(/C=C/C(=O)c2cccc(F)c2)cc1/C=C/C(=O)NO | – |
| 3 nM | 4.32 µM | – | Cc1nc2ccccc2n1Cc1ccc(C(=O)NO)cc1F | – |

The next lines start with the compound.

| SMILES | IC50 [1] | IC50 (Histone deacetylase 1) | IC50 [2] | IC50 [3] |
| --- | --- | --- | --- | --- |
| CCCC(CCC)C(=O)O [VALPROIC ACID] | – | 40 µM | – | – |
| CN(C)c1ccc(C(=O)NCCCCCCC(=O)NO)cc1 | – | – | – | 100 nM |
